What was measured:
[1] = system: Jurkat; test: Immunosuppressive activity in human Jurkat cells assessed as inhibition of concanavalin A-induced IL-2 production at 20 uM pretreated for 30 mins followed by concanavalin A stimulation after 12 hrs by immunoassay relative to control; type: functional
[2] = system: Jurkat; test: Cytotoxicity against concanavalin A-induced human Jurkat cells assessed as reduction in cell viability up to 20 uM pretreated for 30 mins followed by concanavalin A stimulation after 12 hrs by MTT assay; type: cell-based
[3] = system: Jurkat; test: Immunosuppressive activity in human Jurkat cells assessed as inhibition of concanavalin A-induced IL-2 production pretreated for 30 mins followed by concanavalin A stimulation after 12 hrs by immunoassay; type: functional, cell-based

Row | Structure (SMILES) | inhibition at 20 µM [1] [%] | also measured
1 | CCCCCCCCCCCCCCc1cc(O)c(Cl)c(O)c1 | < 50 | –
2 | CCCCCC[C@H]1C[C@H]1CCCCCc1cc(O)c(Cl)c(O)c1 | < 50 | –
3 | CCCCCCCCCCCCCCCc1cc(O)c(Cl)c(O)c1 | < 50 | –
4 | CCCCCCCCCCCCCc1cc(O)c(Cl)c(O)c1 | < 50 | Activity [2]: Non-Toxic; IC50 [3]: 16 µM; inhibition [3]: Dose-dependent effect
5 | CCCCCC/C=C\CCCCCCCc1cc(O)c(Cl)c(O)c1 | < 50 | –
6 | CCCCCC/C=C\CCCCCc1cc(O)c(Cl)c(O)c1 | < 50 | –
7 | CCCCCC/C=C\CC/C=C\CCCc1cc(O)c(Cl)c(O)c1 | < 50 | –
8 | CCCCCC[C@H]1C[C@H]1CCCCCCCc1cc(O)c(Cl)c(O)c1 | < 50 | –

Reference: ChEMBL document CHEMBL4130440, “Isolation, Synthesis, and Biological Activity of Chlorinated Alkylresorcinols from Dictyostelium Cellular Slime Molds” (J Nat Prod, 2017)
